Test results: PubChem BioAssay (NCI)
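Five compound concentrations were applied to cells in 96-well plates for 48 hours; endpoints were derived by simple linear interpolation of the resulting dose-response curve. Abbreviation: GI50, concentration required for 50% inhibition of growth. Definition used: TGI = concentration required for complete inhibition of growth.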

Columns and labels:
Experiment in all cases: DTP human tumour cell line panel, 48 h
HL-60(TB) leukemia = test system: HL-60(TB) leukemia
MOLT-4 leukemia = test system: MOLT-4 leukemia
OVCAR-8 ovarian = test system: OVCAR-8 ovarian
OVCAR-5 ovarian = test system: OVCAR-5 ovarian
SNB-19 CNS = test system: SNB-19 CNS
SK-OV-3 ovarian = test system: SK-OV-3 ovarian
SR leukemia = test system: SR leukemia
786-0 renal = test system: 786-0 renal
NCI-H522 lung = test system: NCI-H522 lung
HOP-92 NSCLC = test system: HOP-92 NSCLC
COLO 205 colon = test system: COLO 205 colon
RPMI-8226 leukemia = test system: RPMI-8226 leukemia
HCT-116 colon = test system: HCT-116 colon
UACC-62 melanoma = test system: UACC-62 melanoma
SF-268 CNS = test system: SF-268 CNS
U251 CNS = test system: U251 CNS
CAKI-1 renal = test system: CAKI-1 renal
A549 NSCLC = test system: A549 NSCLC
HCT-15 colon = test system: HCT-15 colon
MCF7 breast = test system: MCF7 breast
MDA-MB-435 = test system: MDA-MB-435
SF-539 CNS = test system: SF-539 CNS
ACHN renal = test system: ACHN renal
NCI-H23 lung = test system: NCI-H23 lung
K-562 leukemia = test system: K-562 leukemia
MALME-3M melanoma = test system: MALME-3M melanoma
SW-620 colon = test system: SW-620 colon
KM12 colon = test system: KM12 colon
UACC-257 melanoma = test system: UACC-257 melanoma
NCI-H460 lung = test system: NCI-H460 lung
CCRF-CEM leukemia = test system: CCRF-CEM leukemia
DU-145 prostate = test system: DU-145 prostate
SNB-75 CNS = test system: SNB-75 CNS
HCC-2998 colon = test system: HCC-2998 colon
UO-31 renal = test system: UO-31 renal
MDA-MB-231 breast = test system: MDA-MB-231 breast
SF-295 CNS = test system: SF-295 CNS
HS 578T breast = test system: HS 578T breast
OVCAR-4 ovarian = test system: OVCAR-4 ovarian
T-47D breast = test system: T-47D breast
TK-10 renal = test system: TK-10 renal
SK-MEL-2 melanoma = test system: SK-MEL-2 melanoma
SN12C renal = test system: SN12C renal
SK-MEL-28 melanoma = test system: SK-MEL-28 melanoma
LOX IMVI melanoma = test system: LOX IMVI melanoma
HOP-62 NSCLC = test system: HOP-62 NSCLC
IGROV1 ovarian = test system: IGROV1 ovarian
BT-549 breast = test system: BT-549 breast
M14 melanoma = test system: M14 melanoma
RXF 393 renal = test system: RXF 393 renal
PC-3 prostate = test system: PC-3 prostate
NCI-H226 lung = test system: NCI-H226 lung
SK-MEL-5 melanoma = test system: SK-MEL-5 melanoma
NCI/ADR-RES ovarian = test system: NCI/ADR-RES ovarian
OVCAR-3 ovarian = test system: OVCAR-3 ovarian
A498 renal = test system: A498 renal
HT29 colon = test system: HT29 colon

SMILES: COc1cc[nH]c1/C=C1\C(=O)Nc2ccc([N+](=O)[O-])c(N3CC[C@@H](O)C3)c21
- GI50 (HL-60(TB) leukemia): 83.1 nM
- TGI (HL-60(TB) leukemia): 213 nM
- GI50 (MOLT-4 leukemia): 142 nM
- TGI (MOLT-4 leukemia): 2400 nM
- GI50 (OVCAR-8 ovarian): 278 nM
- TGI (OVCAR-8 ovarian): 3460 nM
- GI50 (OVCAR-5 ovarian): 258 nM
- TGI (OVCAR-5 ovarian): 3970 nM
- GI50 (SNB-19 CNS): 495 nM
- TGI (SNB-19 CNS): 5680 nM
- GI50 (SK-OV-3 ovarian): 631 nM
- TGI (SK-OV-3 ovarian): 8160 nM
- GI50 (SR leukemia): 53.6 nM
- TGI (SR leukemia): 185 nM
- GI50 (786-0 renal): 186 nM
- TGI (786-0 renal): 3560 nM
- GI50 (NCI-H522 lung): 393 nM
- TGI (NCI-H522 lung): 1230 nM
- GI50 (HOP-92 NSCLC): 544 nM
- TGI (HOP-92 NSCLC): 2470 nM
- GI50 (COLO 205 colon): 135 nM
- TGI (COLO 205 colon): 688 nM
- GI50 (RPMI-8226 leukemia): 296 nM
- TGI (RPMI-8226 leukemia): 1140 nM
- GI50 (HCT-116 colon): 75.9 nM
- TGI (HCT-116 colon): 25000 nM
- GI50 (UACC-62 melanoma): 338 nM
- TGI (UACC-62 melanoma): 762 nM
- GI50 (SF-268 CNS): 255 nM
- TGI (SF-268 CNS): 1290 nM
- GI50 (U251 CNS): 172 nM
- TGI (U251 CNS): 2070 nM
- GI50 (CAKI-1 renal): 369 nM
- TGI (CAKI-1 renal): 1630 nM
- GI50 (A549 NSCLC): 167 nM
- TGI (A549 NSCLC): 2180 nM
- GI50 (HCT-15 colon): 123 nM
- TGI (HCT-15 colon): 2920 nM
- GI50 (MCF7 breast): 121 nM
- TGI (MCF7 breast): 2850 nM
- GI50 (MDA-MB-435): 271 nM
- TGI (MDA-MB-435): 907 nM
- GI50 (SF-539 CNS): 102 nM
- TGI (SF-539 CNS): 386 nM
- GI50 (ACHN renal): 80.4 nM
- TGI (ACHN renal): 2000 nM
- GI50 (NCI-H23 lung): 484 nM
- TGI (NCI-H23 lung): 1890 nM
- GI50 (K-562 leukemia): 577 nM
- TGI (K-562 leukemia): 7570 nM
- GI50 (MALME-3M melanoma): 921 nM
- TGI (MALME-3M melanoma): 1970 nM
- GI50 (SW-620 colon): 205 nM
- TGI (SW-620 colon): 9490 nM
- GI50 (KM12 colon): 101 nM
- TGI (KM12 colon): 2220 nM
- GI50 (UACC-257 melanoma): 474 nM
- TGI (UACC-257 melanoma): 1640 nM
- GI50 (NCI-H460 lung): 119 nM
- TGI (NCI-H460 lung): 2920 nM
- GI50 (CCRF-CEM leukemia): 85.5 nM
- TGI (CCRF-CEM leukemia): 1510 nM
- GI50 (DU-145 prostate): 177 nM
- TGI (DU-145 prostate): 2830 nM
- GI50 (SNB-75 CNS): 93.1 nM
- TGI (SNB-75 CNS): 989 nM
- GI50 (HCC-2998 colon): 544 nM
- TGI (HCC-2998 colon): 2000 nM
- GI50 (UO-31 renal): 267 nM
- TGI (UO-31 renal): 3440 nM
- GI50 (MDA-MB-231 breast): 479 nM
- TGI (MDA-MB-231 breast): 2310 nM
- GI50 (SF-295 CNS): 128 nM
- TGI (SF-295 CNS): 3400 nM
- GI50 (HS 578T breast): 353 nM
- TGI (HS 578T breast): 6330 nM
- GI50 (OVCAR-4 ovarian): 488 nM
- TGI (OVCAR-4 ovarian): 2140 nM
- GI50 (T-47D breast): 541 nM
- TGI (T-47D breast): 3800 nM
- GI50 (TK-10 renal): 512 nM
- TGI (TK-10 renal): 1610 nM
- GI50 (SK-MEL-2 melanoma): 229 nM
- TGI (SK-MEL-2 melanoma): 688 nM
- GI50 (SN12C renal): 211 nM
- TGI (SN12C renal): 4000 nM
- GI50 (SK-MEL-28 melanoma): 277 nM
- TGI (SK-MEL-28 melanoma): 1200 nM
- GI50 (LOX IMVI melanoma): 92.3 nM
- TGI (LOX IMVI melanoma): 1410 nM
- GI50 (HOP-62 NSCLC): 181 nM
- TGI (HOP-62 NSCLC): 1880 nM
- GI50 (IGROV1 ovarian): 467 nM
- TGI (IGROV1 ovarian): 4270 nM
- GI50 (BT-549 breast): 328 nM
- TGI (BT-549 breast): 1590 nM
- GI50 (M14 melanoma): 399 nM
- TGI (M14 melanoma): 1130 nM
- GI50 (RXF 393 renal): 56.6 nM
- TGI (RXF 393 renal): 146 nM
- GI50 (PC-3 prostate): 235 nM
- TGI (PC-3 prostate): 2150 nM
- GI50 (NCI-H226 lung): 169 nM
- TGI (NCI-H226 lung): 1690 nM
- GI50 (SK-MEL-5 melanoma): 181 nM
- TGI (SK-MEL-5 melanoma): 847 nM
- GI50 (NCI/ADR-RES ovarian): 530 nM
- TGI (NCI/ADR-RES ovarian): 5830 nM
- GI50 (OVCAR-3 ovarian): 131 nM
- TGI (OVCAR-3 ovarian): 1590 nM
- GI50 (A498 renal): 182 nM
- TGI (A498 renal): 815 nM
- GI50 (HT29 colon): 209 nM
- TGI (HT29 colon): 1560 nM
